These results are taken from patent US6713247B1, “Human CNS cell lines and methods of use therefor” (Signal Pharmaceuticials, Inc., priority 1996, dated 2004).

In one test the test system is clone B4. The test can be described thus: Immunoreactivity of clone B4 (BrdU, v-myc, MAP2a/b, GFAP, tau, NR1). The format is cell-based, human. The source says: (§1) To promote further neuronal maturation the effects of additional differentiating agents on clone B4 were examined.
The test system of another test is Human CNS Line B4. The test can be described thus: Effects of growth conditions on neuronal differentiation (morphology), Human CNS Line B4 (Table 3). The note with it: clone B4, added to tet. Type of test: cell-based.
Excerpt: as §1

The next test has as its system clone E5. The test can be described thus: Immunoreactivity of clone E5. Type of test: cell-based, human. The note with it: clone E5, after differentiation.
Another test relates to clone C2. The test can be described thus: Effects of EGF and PDGF on proliferation and survival, clone C2. The format is cell-based, human. The conditions noted are these: added to growth medium with FGF-2 and 50% CM, EGF 40 ng/mL, PDGF 20 ng/mL. As for the experimental part:
(§2) EGF and PDGF Enhance Proliferation Rate and Cell Survival. To facilitate the expansion of the human CNS clones, we identified factors that increase the proliferation rate and/or cell survival. To examine the effects of EGF and PDGF on the proliferation and survival of the human CNS clones, 40 ng/mL EGF, 20 ng/mL PDGF or both were added to the standard growth medium, which already contained FGF-2 and 50% CM, and total cell number and BrdU uptake and incorporation were assessed as described above. For clone C2, EGF or PDGF addition increased the total cell number (FIG. 11A) by approximately 2-fold. This increase in cell number was due to enhanced cell viability (decreased cell death), since there were only slight increases in proliferation rate (assessed by BrdU uptake and incorporation, FIG. 11B). […] In the case of clone C10, EGF (but not PDGF) addition increased the total cell number (FIG. 12A) by approximately 40%. […] This increase in cell number was due, at least in part, to enhanced proliferation rates; BrdU uptake and incorporation increase about 2-fold with EGF or EGF+PDGF addition (FIG. 12B), and doubling times (based on cell counts as a function of days in vitro, data not shown) decreased from 3 days (no EGF or PDGF addition) to 2 days (EGF+PDGF addition). […]

The subject of a further test is clone C10. The test can be described thus: Effects of EGF and PDGF on proliferation and survival, clone C10. The format is cell-based, human. The conditions noted are these: EGF 40 ng/mL, PDGF 20 ng/mL. As for the experimental part:
as §2

Excerpt for clone E5: Clone E5 is an immature multi-potent cell. Clone E5 is multi-potential and likely represents an immortalized stem cell.
Excerpt for differentiated clone B4: B4 cells were differentiated by growth with tet+RA for 1 day, followed by tet, high K^+, NT-3 and BDNF for 6 days.

As to `CCCCCCCCCCCCCC(=O)O[C@@H]1[C@@H](C)[C@@]2(O)[C@@H](C=C(CO)C[C@]3(O)C(=O)C(C)=C[C@@H]23)[C@@H]2C(C)(C)[C@]12OC(C)=O` [PMA, phorbol 12-myristate 13-acetate], the “effect on cell lineage (MAP2a/b and GFAP immunoreactivities)” value in the test on clone B4 is on record as “strongly promoted astrocytic differentiation”. Moreover, the “effect on neuronal differentiation (morphology and immunocytochemical staining)” value with Human CNS Line B4 is listed as “prevented tet from inducing neuronal differentiation”.
Consider `CN(C)[C@@H]1C(O)=C(C(N)=O)C(=O)[C@@]2(O)C(O)=C3C(=O)c4c(O)cccc4[C@@](C)(O)[C@H]3C[C@@H]12` [tetracycline], for which, in the test with clone E5, the “cells stained for GFAP” value is on record as “about 20%” and the “cells stained for MAP2a/b” value is reported as “about 50%”.
In the case of “PDGF: human recombinant platelet derived growth factor A/B”, the “increase in total cell number” value with clone C2 was “approximately 2 fold”. The “effect on total cell number” value with clone C10 is on record as “not”.
On to TNFα, for which, in the test on differentiated clone B4 (TNFα 10 ng/mL), the “DNA laddering upon gel analysis” value is on record as “increased DNA laddering” and the “percentage of apoptotic nuclei” value was “increased”. For the same molecule, the “effect on neuronal viability” value with differentiated clone B4 (TNFα 0.05 or 0.2 ng/mL) is reported as “little effect on neuronal viability”.
On to “Z-Val-Ala-Asp-Ch2F [Z-VAD, reference compound]”, for which the “effect on TNFα-induced increase in DNA laddering” value in the test on differentiated clone B4 (Z-VAD at 80 μM, TNFα 10 ng/mL) was “blocked the increase in DNA laddering”.
